Experimental findings from US9981907B2, “Low molecular weight cationic lipids for oligonucleotide delivery” (SIRNA THERAPEUTICS, INC., priority 2010, dated 2018) are described below.

Structures are written as SMILES.

The test system of data set [1] is mRNA transcript for the firefly (Photinus pyralis) luciferase gene. As to the kind of experiment: Mouse in vivo evaluation of efficacy (luciferase siRNA LNP/RDV, liver luminescence). The settings on record: LSL-Luc transgenic mice, RDV with Luc siRNA tail vein injected, 0.1 to 0.5 mg/kg siRNA, imaged 48 hours post dose; compared with RDV containing octyl-CLinDMA (OCD); FIG. 1. The procedure:
LNPs utilizing Compound 1, in the nominal compositions described immediately above, were evaluated for in vivo efficacy. The siRNA targets the mRNA transcript for the firefly (Photinus pyralis) luciferase gene (Accession #M15077). […] The in vivo luciferase model employs a transgenic mouse in which the firefly luciferase coding sequence is present in all cells. ROSA26-LoxP-Stop-LoxP-Luc (LSL-Luc) transgenic mice licensed from the Dana Farber Cancer Institute are induced to express the Luciferase gene by first removing the LSL sequence with a recombinant Ad-Cre virus (Vector Biolabs). Due to the organo-tropic nature of the virus, expression is limited to the liver when delivered via tail vein injection. Luciferase expression levels in liver are quantitated by measuring light output, using an IVIS imager (Xenogen) following administration of the luciferin substrate (Caliper Life Sciences). Pre-dose luminescence levels are measured prior to administration of the RDVs. Luciferin in PBS (15 mg/mL) is intraperitoneally (IP) injected in a volume of 150 μL. After a four minute incubation period mice are anesthetized with isoflurane and placed in the IVIS imager. The RDVs (containing siRNA) in PBS vehicle were tail vein injected n a volume of 0.2 mL. […] In vivo efficacy results are expressed as % inhibition of luminescence relative to pre-dose luminescence levels. […]

Data set [2] is described as follows: Determination of cationic lipid levels in rat liver (LC/MS-MS). Format: in vivo. Conditions: rats dosed with RDV; compared with RDV containing DLinKC2DMA (Compound 4) or MC3 (Compound 3); FIG. 3. The procedure:
Liver tissue was weighed into 20-ml vials and homogenized in 9 v/w of water using a GenoGrinder 2000 (OPS Diagnostics, 1600 strokes/min, 5 min). A 50 μL aliquot of each tissue homogenate was mixed with 300 μL of extraction/protein precipitating solvent (50/50 acetonitrile/methanol containing 500 nM internal standard) and the plate was centrifuged to sediment precipitated protein. A volume of 200 μL of each supernatant was then transferred to separate wells of a 96-well plate and 10 μl samples were directly analyzed by LC/MS-MS.
Standards were prepared by spiking known amounts of a methanol stock solution of compound into untreated rat liver homogenate (9 vol water/weight liver). Aliquots (50 μL) each standard/liver homogenate was mixed with 300 μL of extraction/protein precipitating solvent (50/50 acetonitrile/methanol containing 500 nM internal standard) and the plate was centrifuged to sediment precipitated protein. A volume of 200 μL of each supernatant was transferred to separate wells of a 96-well plate and 10 μl of each standard was directly analyzed by LC/MS-MS.
Absolute quantification versus standards prepared and extracted from liver homogenate was performed using an Aria LX-2 HPLC system (Thermo Scientific) coupled to an API 4000 triple quadrupole mass spectrometer (Applied Biosystems). […]

Data set [3] is described as follows: Rat in vivo toxicity (survival after LNP dosing). Conditions: for Rats that failed to survive 48 hours: rats treated with 3 mg/kg. The procedure: Six hours post dose, food is removed from the cages. Animal necropsy is performed 24 hours after LNP dosing. Rats are anesthetized under isoflurane for 5 minutes, then maintained under anesthesia by placing them in nose cones continuing the delivery of isoflurane until ex-sanguination is completed. Blood is collected from the vena cava using a 23 gauge butterfly venipuncture set and aliquoted to serum separator vacutainers for serum chemistry analysis. Punches of the excised caudate liver lobe are taken and placed in RNALater (Ambion) for mRNA analysis. Preserved liver tissue was homogenized and total RNA isolated using a Qiagen bead mill and the Qiagen miRNA-Easy RNA isolation kit following the manufacturer's instructions. Liver ApoB mRNA levels were determined by quantitative RT-PCR. Message was amplified from purified RNA utilizing a rat ApoB commercial probe set (Applied Biosystems Cat #RN01499054_m1). The PCR reaction was performed on an ABI 7500 instrument with a 96-well Fast Block. The ApoB mRNA level is normalized to the housekeeping PPIB (NM 011149) mRNA. PPIB mRNA levels were determined by RT-PCR using a commercial probe set (Applied Biosystems Cat. No. Mm00478295_m1). Results are expressed as a ratio of ApoB mRNA/PPIB mRNA. All mRNA data is expressed relative to the PBS control dose. Serum ALT and AST analysis were performed on the Siemens Advia 1800 Clinical Chemistry Analyzer utilizing the Siemens alanine aminotransferase (Cat #03039631) and aspartate aminotransferase (Cat #03039631) reagents. […] 3 out of 4 rats treated with 6 mg/kg Compound 2 survived at 48 hours post dose.

As for `CCCCC/C=C\C/C=C\CCCCCCCCCC(CCCCCCCCC)OC(=O)CCCN(C)C` (centres unmarked) [Compound 1, (20Z,23Z)-nonacosa-20,23-dien-10-yl 4-(dimethylamino)butanoate], the “In vivo efficacy, % inhibition of luminescence relative to pre-dose luminescence levels” value in data set [1] is “Greater efficacy”.
With `CCCCCCCC/C=C\CCCCCCCC(CCCCCCCCC)OC(=O)CCCN(C)C` (centres unmarked) [Compound 2, (18Z)-heptacos-18-en-10-yl 4-(dimethylamino)butanoate], the “Cationic lipid liver levels” value in data set [2] is listed as “lower”. Also, the “Rats survived at 48 hours post dose” value in data set [3] (female, Sprague-Dawley (Crl:CD(SD)), rat, in vivo, 6 mg/kg, 48 h) is 3 out of 4.
On to `CCCCC/C=C\C/C=C\CCCCCCCCC(CCCCCCCC/C=C\C/C=C\CCCCC)OC(=O)CCCN(C)C` [Compound 3, MC3], for which the “Rats that failed to survive 48 hours” value in data set [3] is 2 out of 4.
As for `CCCCC/C=C\C/C=C\CCCCCCCCC1(CCCCCCCC/C=C\C/C=C\CCCCC)OCC(CCN(C)C)O1` (centres unmarked) [Compound 4, DLinKC2DMA], the “Rats that failed to survive 48 hours” value in data set [3] is recorded as 3 out of 4.
